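Tested at 5 concentrations; 48 h exposure; 96-well plates; endpoints linearly interpolated, else capped at highest concentration. Here, GI50 denotes the concentration required for 50% inhibition of growth.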 Calls of active or inactive are those of the source. Rule as the data show it: active = GI50 up to about 1.1 µM and inactive = higher.
How the values were obtained:
Assay in all cases: growth of human tumour cells (NCI), 48 h
Malme-3M = tested on: Malme-3M
PC-3 = tested on: PC-3
UACC-257 = tested on: UACC-257
NCI/ADR-RES = tested on: NCI/ADR-RES
MOLT-4 = tested on: MOLT-4
HT-29 = tested on: HT-29
SF-539 = tested on: SF-539
SW-620 = tested on: SW-620
DU-145 = tested on: DU-145
ACHN = tested on: ACHN
KM12 = tested on: KM12
SK-MEL-2 = tested on: SK-MEL-2
SF-268 = tested on: SF-268
UACC-62 = tested on: UACC-62
NCI-H226 = tested on: NCI-H226
Hs-578T = tested on: Hs-578T
OVCAR-8 = tested on: OVCAR-8
NCI-H522 = tested on: NCI-H522
OVCAR-4 = tested on: OVCAR-4

Measured: GI50

N#CC12COC3(CCCCC3C1(C#N)C#N)OC2=N (stereo unspecified)
inactive: Malme-3M 16.3 µM | PC-3 13.8 µM | UACC-257 17.4 µM | NCI/ADR-RES 28.2 µM | MOLT-4 10.9 µM | HT-29 11.3 µM | SF-539 13.9 µM | SW-620 10.3 µM | DU-145 15.3 µM | ACHN 15.1 µM | KM12 > 10 µM | SK-MEL-2 12.7 µM | SF-268 12.7 µM | UACC-62 14.7 µM | NCI-H226 22.9 µM | Hs-578T 17.1 µM | OVCAR-8 > 10 µM

COc1ccc(C(=O)Nc2ccc(O)c(=O)cc2)cc1
inactive: Malme-3M 43.9 µM | PC-3 40 µM | UACC-257 40.6 µM | NCI/ADR-RES 42.3 µM | NCI-H522 25.8 µM | HT-29 20.8 µM | SF-539 33.2 µM | SW-620 30.7 µM | DU-145 25.6 µM | ACHN 23.7 µM | KM12 39.4 µM | SK-MEL-2 50.1 µM | SF-268 21 µM | UACC-62 32.5 µM | NCI-H226 > 100 µM | Hs-578T 29.2 µM | OVCAR-8 30.6 µM

Cc1ccc(S(=O)(=O)NC(=O)OC23COCN2COC3)cc1
inactive: Malme-3M > 100 µM | PC-3 > 100 µM | UACC-257 > 100 µM | NCI/ADR-RES > 100 µM | OVCAR-4 > 100 µM | NCI-H522 > 100 µM | HT-29 > 100 µM | SF-539 > 100 µM | SW-620 81.7 µM | DU-145 > 100 µM | ACHN > 100 µM | KM12 > 100 µM | SK-MEL-2 > 100 µM | SF-268 > 100 µM | UACC-62 > 100 µM | NCI-H226 > 100 µM | Hs-578T > 100 µM | OVCAR-8 > 100 µM

C=C(C)CC1=C(OCC)C(OC)(OCC)C1=O (stereo unspecified)
inactive: PC-3 > 100 µM | UACC-257 > 100 µM | NCI/ADR-RES > 100 µM | OVCAR-4 > 100 µM | NCI-H522 47.8 µM | MOLT-4 > 100 µM | HT-29 > 100 µM | SF-539 > 100 µM | SW-620 > 100 µM | DU-145 > 100 µM | ACHN > 100 µM | KM12 > 100 µM | SK-MEL-2 > 100 µM | SF-268 > 100 µM | UACC-62 > 100 µM | NCI-H226 > 100 µM | Hs-578T > 100 µM | OVCAR-8 > 100 µM

COc1cc(/C=N/NC(=O)c2c(Cl)c(Cl)c(Cl)c(Cl)c2-c2nc3ccccc3[nH]2)ccc1O
inactive: Malme-3M 21.7 µM | PC-3 29.4 µM | UACC-257 29.3 µM | NCI/ADR-RES > 100 µM | NCI-H522 30.6 µM | MOLT-4 18 µM | HT-29 22.2 µM | SF-539 26.7 µM | SW-620 34.4 µM | DU-145 19.9 µM | ACHN 21.4 µM | KM12 24.2 µM | SK-MEL-2 20.3 µM | SF-268 32.5 µM | UACC-62 15.8 µM | NCI-H226 21.3 µM | Hs-578T 44 µM | OVCAR-8 31.1 µM

CC(C)(C)OC(=O)NCC(CNC(=O)OC(C)(C)C)C(N)=O
inactive: Malme-3M > 100 µM | PC-3 > 100 µM | UACC-257 > 100 µM | NCI/ADR-RES > 100 µM | OVCAR-4 > 100 µM | NCI-H522 > 100 µM | MOLT-4 > 100 µM | HT-29 > 100 µM | SF-539 > 100 µM | SW-620 > 100 µM | DU-145 > 100 µM | ACHN > 100 µM | KM12 > 100 µM | SF-268 > 100 µM | UACC-62 > 100 µM | NCI-H226 > 100 µM | Hs-578T > 100 µM | OVCAR-8 > 100 µM

c1cc2c3c(c1)[C@@H]1O[C@@H]1c1cccc(c1-3)[C@@H]1O[C@H]21
inactive: Malme-3M 15.4 µM | PC-3 22.9 µM | UACC-257 18.2 µM | NCI/ADR-RES 22.4 µM | OVCAR-4 19.8 µM | NCI-H522 14.8 µM | MOLT-4 35 µM | HT-29 17.7 µM | DU-145 18 µM | ACHN 18.7 µM | KM12 17.1 µM | SK-MEL-2 17.4 µM | SF-268 16.3 µM | UACC-62 16.5 µM | NCI-H226 > 100 µM | Hs-578T 17.6 µM | OVCAR-8 17.9 µM

C=CCc1cccc2cc(C(=O)Nc3ccc(C)cc3)c(=N)oc12
inactive: Malme-3M > 100 µM | PC-3 > 100 µM | UACC-257 > 100 µM | NCI/ADR-RES > 100 µM | OVCAR-4 > 100 µM | NCI-H522 > 100 µM | MOLT-4 > 100 µM | HT-29 > 100 µM | SW-620 > 100 µM | DU-145 > 100 µM | ACHN > 100 µM | KM12 > 100 µM | SK-MEL-2 45.2 µM | SF-268 > 100 µM | UACC-62 > 100 µM | NCI-H226 33.9 µM | Hs-578T > 100 µM | OVCAR-8 > 100 µM
